Assay results as given in patent publication US9610258B2, “Methods of stabilizing the extracellular matrix and compositions therefor” (priority 2011, dated 2017).
“And” between values parts separate entries of the source, which are not always exact repeats. Identical values can stand only once.

Columns and labels:
[1] = 12-month aging of topical cream, isothiocyanate concentration by HPLC; type: physicochemical; conditions: Table 11 cream; for isothiocyanate concentration in cream, 4 months: aged 4 months; for isothiocyanate concentration in cream, 8 months: aged 8 months; for isothiocyanate concentration in cream, 12 months: aged 12 months; for isothiocyanate concentration in cream, Original: time 0
Description: To determine the effects of aging of the topical cream formulations on the potency of the included bioactives, a study was performed as described in Table 12. Shown is a 12-month aging of the orthomolecular transdermal formulation as described in Table 11. Bio-encapsulation of the isothiocyanates, such as cyclodextrin R-sulforaphane, is not commonly available, and can suffer instability depending on the cream base used. Since topical formulations are applied to the skin, consideration of noxious volatile sulfur emissions and dermal irritation, especially from broccoli, wasabi, and mustard extracts, limit their amount and source. Table 12 illustrates that stabilization of orthomolecular ingredients such as isothiocyanates can be accomplished in a topical formulation.

mice = conditions: mouse, in vivo; cited from earlier work
ear edema = conditions: cited from earlier work
[2] = tested on: oxazolone-induced ear edema in BALB/c mice; experiment: Oxazolone-induced murine ear edema, second formalized study; type: in vivo; conditions: for reduction / inhibition of oxazolone-induced ear edema: as stated in running text per treatment group; for Change in Ear Weight, Mean: group mean, 8 mice, acetone vehicle 74.6; for Left Ear weight / Right Ear weight / ΔWt., change in mouse ear weight: individual mice, 24 h after oxazolone challenge; for % Inhibition of change in ear weight: vs acetone vehicle group
Description: The present example assesses the anti-inflammatory activity of a topically applied formulation in accordance with one aspect of the present invention in a prophylactic and therapeutic model of ear edema in BALB/c mice. […] Louis, Mo., USA) to 20 mL acetone (Acros Organics, Cat. 42324-0010, lot B4522107, Thermo Fisher Scientific, Princeton, N.J., USA). The mixture was gently heated until a bright yellow color. 52 BALB/c mice (Harlan Sprague-Dawley, Inc., Indianapolis, Ind., USA, male, 6-7 weeks old) were received, individually examined and housed in six cages of eight mice each and one cage containing four mice. No clinical signs of disease or distress were observed. The mice were placed in quarantine with daily inspections. […] The mixture was gently heated until a bright yellow color. […] This equated to 0.336 mg of cream per ear. 0.6 mg betamethasone-21-valerate (Sigma Chem., Cat. […] PZ0008, lot 020M47044) was suspended in […] dH2O (1 mg/mL) for Group 4. […] Twenty-four hours after oxazolone challenge, the mice were euthanized, and the ears were removed and weighed.

[3] = in topical formulations; cited from earlier work
breast cancer = conditions: women living at least one year after breast cancer diagnosis; cited from earlier work

C[S@@+]([O-])C=CCCN=C=S [Sulforaphene, 4-isothiocyanato-(1R)-(methylsulphinyl)-1-(E)-butene]
isothiocyanate concentration in cream, 4 months [1]: 1.729 Mg/gm
isothiocyanate concentration in cream, 8 months [1]: 0.308 Mg/gm
isothiocyanate concentration in cream, 12 months [1]: 0.233 Mg/gm
isothiocyanate concentration in cream, Original [1]: 0.551 Mg/gm

COc1cc(/C=C/C(=O)CC(=O)/C=C/c2ccc(O)c(OC)c2)ccc1O [Curcumin]
Oral LD50 (mice): > 2 g/kg body weight

Oc1ccc(/C=C/c2cc(O)cc(O)c2)cc1 [trans-resveratrol, 3,5,4′-trihydroxy-trans-stilbene]
inhibition of edema (ear edema; commercially-purified, at similar concentration to that of the topical formulation): 35%

Cc1ccc(-c2cc(C(F)(F)F)nn2-c2ccc(S(N)(=O)=O)cc2)cc1 [Oral Celecoxib, celecoxib]
reduction / inhibition of oxazolone-induced ear edema [2]: 37%
Change in Ear Weight, Mean [2]: 46.7 mg
Left Ear weight [2]: 27.52 mg and 25.00 mg and 22.00 mg and 27.84 mg and 30.30 mg and 26.29 mg and 23.89 mg and 23.84 mg
Right Ear weight [2]: 79.55 mg and 68.55 mg (2×) and 72.46 mg and 81.00 mg and 75.32 mg and 72.39 mg and 62.48 mg
ΔWt., change in mouse ear weight [2]: 52.03 mg and 43.55 mg and 46.55 mg and 44.62 mg and 50.70 mg and 49.03 mg and 48.50 mg and 38.64 mg
% Inhibition of change in ear weight [2]: 37%

betamethasone-21-valerate [Topical Betamethasone]
reduction / inhibition of oxazolone-induced ear edema [2]: 69%
Change in Ear Weight, Mean [2]: 23.7 mg
Left Ear weight [2]: 22.10 mg and 23.20 mg and 24.56 mg and 20.44 mg and 21.26 mg and 22.60 mg (2×) and 25.74 mg
Right Ear weight [2]: 48.00 mg and 45.52 mg and 48.66 mg and 47.03 mg and 41.34 mg and 45.70 mg and 49.51 mg and 46.30 mg
ΔWt., change in mouse ear weight [2]: 25.90 mg and 22.32 mg and 24.10 mg and 26.59 mg and 20.08 mg and 23.10 mg and 26.91 mg and 20.56 mg
% Inhibition of change in ear weight [2]: 68%

C[S+]([O-])CCCCN=C=S (centres unmarked) [Sulforaphane]
time to decline to a zero level [3]: 30 days

C[S+]([O-])CCCCCCN=C=S (centres unmarked) [6 MITC, 6-(methylsulfinyl)hexyl isothiocyanate]
isothiocyanate concentration in cream, 4 months [1]: 0.341 Mg/gm
isothiocyanate concentration in cream, 8 months [1]: 0.614 Mg/gm
isothiocyanate concentration in cream, 12 months [1]: 0.571 Mg/gm
isothiocyanate concentration in cream, Original [1]: 0.123 Mg/gm

CC(=O)Oc1ccccc1C(=O)O [aspirin]
decrease in distant recurrence and breast cancer death (breast cancer): ~50%

C[S@+]([O-])CCCCN=C=S [L-Sulforaphane]
isothiocyanate concentration in cream, 4 months [1]: 0.358 Mg/gm
isothiocyanate concentration in cream, 8 months [1]: 1.105 Mg/gm
isothiocyanate concentration in cream, 12 months [1]: 1.841 Mg/gm
isothiocyanate concentration in cream, Original [1]: 0.606 Mg/gm

COc1ccc2c(c1)c(CC(=O)O)c(C)n2C(=O)c1ccc(Cl)cc1 [indomethacin]
inhibition / reduction of edema reported by studies of individual topical components (ear edema; research grade trans-resveratrol, indomethacin 0.5 mg/ear): 45%
